The subject of data set [1] is HT29 tumor-bearing mice. Description: Effect of Ca-DTPA on in vivo pharmacokinetics of ^64Cu-ATSM in HT29 tumor-bearing mouse (Comparative Example 1). As to conditions: Ca-DTPA 150 mg/kg i.v. 10 minutes after ^64Cu-ATSM; 1 and 2 hours; vs saline.
A short description of data set [2]: ^64Cu complex exchange reaction between ^64Cu-ATSM and chelating agent in mouse plasma (TLC). The following applies: 37° C., chelating agent 10 mg/mL, ^64Cu-ATSM 6 μCi/mL, 5, 30 or 60 minutes. As for the experimental part:
Blood collected from BALB/c nude mice (male, 6-week old, about 25 g in body weight, obtained from Japan SLC, Inc.) under diethyl ether anesthesia was centrifuged (high-speed cooling centrifuge Model MX-105, from Tomy Co., Ltd., 3,000 rpm, 10 minutes) to provide plasma. In the mouse plasma maintained at 37° C. was mixed each of D-penicillamine, dimercaprol, trientine hydrochloride, and deferoxamine mesylate to a final concentration of 10 mg/mL, to which ^64Cu-ATSM was then added to a final concentration of 6 μCi/mL. After maintaining each of the mixtures at 37° C. for 5 minutes, 30 minutes, or 60 minutes, methanol cooled at 4° C. in advance was added in an equal amount to the plasma thereto, which was thoroughly mixed and centrifuged (as above), followed by analyzing the supernatant by a TLC method.

The test system of data set [3] is HT29 tumor-bearing mice. The data set can be described thus: Effect of D-penicillamine on in vivo pharmacokinetics of ^64Cu-ATSM in HT29 tumor-bearing mouse (1): before/after dosing. The following applies: vs saline.
In data set [4] the test system is HT29 tumor-bearing mice. Description: Effect of D-penicillamine on in vivo pharmacokinetics and excretion of ^64Cu-ATSM in HT29 tumor-bearing mouse (2): dose dependence. The following applies: D-penicillamine 100, 300 or 500 mg/kg oral 1 hour after ^64Cu-ATSM, vs saline.
Data set [5] relates to HT29 tumor-bearing mice. Description: Effect of D-penicillamine on in vivo pharmacokinetics and excretion of ^64Cu-ATSM in HT29 tumor-bearing mouse (3): repeated administration. As to conditions: D-penicillamine 100 mg/kg oral 3 times at 1-hour or 2-hour intervals, vs saline.
Protocol: 185 kBq (5 μCi) of ^64Cu-ATSM was administered through the tail vein of the tumor-bearing mice prepared by the same method as Example 3; D-penicillamine was orally administered to 100 mg/kg 1 hour thereafter; and D-penicillamine was then orally administered to 100 mg/kg 2 times at 1-hour or 2-hour intervals. Saline was administered to a control group in place of D-penicillamine. Thereafter, radioactivity in each organ, urine, and feces was measured as Example 4; the radioactivity distributed in each organ was expressed as % ID/g tissue, and the excretion of radioactivity into urine and feces was expressed as % ID.
Data set [6] relates to HT29 tumor-bearing mice. The data set can be described thus: Effect of D-penicillamine on PET imaging of ^64Cu-ATSM in HT29 tumor-bearing mouse. The data set is classed as in vivo. The method, then: The distribution of radioactivity was imaged using a PET device specific for small animals (Inveon, from Siemens Medical Systems, Inc.) 30 minutes and 2, 3, 4, 5, 6, 7, 8, and 24 hours after the administration of ^64Cu-ATSM. Image acquisition was performed for 5 minutes from each time point, and the image was reconstructed by a 3-dimensional maximum a posteriori probability method (3D-MAP method) using Inveon Acquisition Workplace Software (from Siemens Medical Systems, Inc.). As a control, PET imaging was also similarly performed in mice receiving the administration of saline in place of D-penicillamine.

Data set [7] deals with HT29 tumor-bearing mice. The data set can be described thus: Effect of repeated D-penicillamine with or without glycerin enema on in vivo pharmacokinetics and excretion of ^64Cu-ATSM in HT29 tumor-bearing mouse (4). The following applies: D-penicillamine 100 mg/kg oral at 1, 3 and 5 hours after ^64Cu-ATSM, vs saline. An excerpt: FIGS. 12A, 12B and 12C were expressed in average and standard deviation for 4 mice.

Data set [8] relates to CD133-positive cells. As to conditions: Yoshii et al. 2010; cited from earlier work.
Data set [9] deals with tumor. The following applies: Yoshii et al. 2011; cited from earlier work.
Data set [10] has as its system HT29 tumor-bearing mice. The following applies: trientine hydrochloride 500 mg/kg oral 1 hour after ^64Cu-ATSM; vs saline. As for the experimental part:
Human large bowel cancer-derived HT29 cells were purchased from ATCC and proliferated for use. The HT29 tumor-bearing model was prepared by implanting 1×10^7 HT29 cells subcutaneously in the femoral region of BALB/c nude mice (male, 6-week old, about 25 g in body weight, obtained from Japan SLC, Inc.), and used for the experiment 3 weeks after implantation. The tumor-bearing mice were fasted from 16 hours or more before the start of the experiment. 185 kBq (5 μCi) of ^64Cu-ATSM was administered through the tail vein of the HT29 tumor-bearing mice, and D-penicillamine was orally administered to 500 mg/kg 10 minutes therebefore or 1 hour thereafter. Saline was administered to a control group in place of D-penicillamine. They were sacrificed by blood removal from the heart under diethyl ether anesthesia 1, 2, and 3 hours after the administration of ^64Cu-ATSM; each tissue was removed and weighed; and radioactivity was further measured using an automatic gamma counter (Model: 1480 Wizard 3, from PerkinElmer Co., Ltd.). The radioactivity distributed in each organ was expressed as radioactivity per g of organ (% ID (Injected Dose)/g tissue) when the amount administered is set to 100%. 185 kBq (5 μCi) of ^64Cu-ATSM was administered through the tail vein of the HT29 tumor-bearing mice prepared by the same method as Example 3, and D-penicillamine was orally administered to 100, 300, or 500 mg/kg 1 hour thereafter. Saline was administered to a control group in place of D-penicillamine. They were sacrificed by blood removal from the heart under diethyl ether anesthesia 2, 4, 6, 16, and 24 hours after the administration of ^64Cu-ATSM; each tissue was removed and weighed; and radioactivity was further measured. The excreted urine and feces were recovered, and radioactivity was similarly measured. The radioactivity distributed in each organ was expressed as ID/g tissue. The excretion of radioactivity into each of urine and feces was expressed as radioactivity (% ID) when the amount administered was set to 100%. 185 kBq (5 μCi) of ^64Cu-ATSM was administered through the tail vein of the tumor-bearing mice prepared by the same method as Example 3, and trientine hydrochloride was orally administered to 500 mg/kg 1 hour thereafter. Saline was administered to a control group in place of trientine hydrochloride. Thereafter, radioactivity in each organ, urine, and feces was measured as Example 4; the radioactivity distributed in each organ was expressed as % ID/g tissue, and the excretion of radioactivity into urine and feces was expressed as % ID.

Setting [11] is: D-penicillamine 300 mg/kg oral 1 hour after 37 MBq ^64Cu-ATSM, vs saline.

Counter-ions that a name gives are not always drawn. Like-named read-outs stand apart in the source and are kept apart here.

The values below come from US20140186260A1, “RADIOPHARMACEUTICAL AND PHARMACEUTICAL KIT” (NIHON MEDI-PHYSICS CO., LTD., priority 2012, published 2014).

As for `O=C([O-])CN(CCN(CC(=O)[O-])CC(=O)[O-])CCN(CC(=O)[O-])CC(=O)[O-].[Ca+2].[Na+].[Na+].[Na+]` [Ca-DTPA], the “uptake of radioactivity into each organ and tumor” value in [1] was “statistically little affected”.
Turning to `CC(C)(S)[C@@H](N)C(=O)O` [D-penicillamine], the “^64Cu complex exchange reaction from ^64Cu-ATSM to a highly polar complex” value (“^64Cu complex exchange reaction” for short) in data set [2] was “Cu-ATSM and unidentified metabolites or degradation products rapidly disappeared, and the origin component increased”. The “uptake of radioactivity into the tumor” value is “decreased the uptake of radioactivity into the tumor” in data set [3] (D-penicillamine 500 mg/kg oral 10 minutes before ^64Cu-ATSM), “not statistically significantly affected” in data set [4], “not statistically significantly affected” in [5] and “not statistically significantly affected” in data set [7]. Moreover, the “uptake of ^64Cu-ATSM into the tumor” value in data set [3] (D-penicillamine 500 mg/kg oral 1 hour after ^64Cu-ATSM) was “did not affect”. For the same molecule, the “uptake of radioactivity into the liver” value is reported as “markedly decreased” in [3] (D-penicillamine 500 mg/kg oral, 10 minutes before or 1 hour after ^64Cu-ATSM i.v., 1, 2, 3 hours); “dose-dependently decreased” in data set [4] (2-24 hours); “decreased” in [5] (from 1 hour after ^64Cu-ATSM); “decreased” in data set [7] (6, 16, 24 hours). The “excretion of radioactivity into feces” value in data set [4] and in data set [5] was “less affected” throughout. In addition, the “excretion of radioactivity into urine” value in data set [4], in data set [5] and in data set [7] was “statistically significantly promoted” each time. For the same molecule, the “accumulation of radioactivity in the bladder (PET)” value in data set [6] (setting [11]) was “increase the accumulation of radioactivity in the bladder”. The “accumulation of radioactivity in the liver (PET)” value in data set [6] (setting [11]) is given as “decrease the accumulation of radioactivity in the liver”. Further, the “accumulation of radioactivity in the tumor (PET)” value in data set [6] (setting [11]) was “not affected”.
With `CN=C([S-])N/N=C(C)/C(C)=N/NC([S-])=NC.[64Cu+2]` [^64Cu-ATSM, radioactive diacetyl-bis(N4-methylthiosemicarbazone) copper complex], the “radioactivity accumulation in the liver after ^64Cu-ATSM (PET)” value in data set [6] (37 MBq ^64Cu-ATSM i.v., before chelating agent) is “radioactivity accumulation in the liver was once observed”. For the same molecule, the “accumulation in CD133-positive cells” value in [8] was “accumulates in CD133-positive cells”. In addition, in data set [9], the “amount of CD133-positive cells in tumor” value is on record as “decreased the amount of CD133-positive cells in tumor” and the tumor size result is “shrink the tumor”.
Take `CC(=O)N(O)CCCCCNC(=O)CCC(=O)N(O)CCCCCNC(=O)CCC(=O)N(O)CCCCCN` [deferoxamine mesylate]: the “^64Cu complex exchange reaction” value in data set [2] is on record as “No complex exchange reaction”.
Same read-out and setting: under `OCC(S)CS` (stereo not drawn) [dimercaprol] stands “Cu-ATSM and unidentified metabolites or degradation products rapidly disappeared, and the origin component increased”.
On to `NCCNCCNCCN` [trientine hydrochloride], for which, in data set [2], the “^64Cu complex exchange reaction” value is reported as “the effect thereof was relatively weak”. For the same molecule, in data set [10], the “excretion of radioactivity into feces” value is reported as “less affected”, the “excretion of radioactivity into urine” value is reported as “statistically significantly promoted”, the “uptake of radioactivity into the liver” value is given as “tended to be decreased” and the “uptake of radioactivity into the tumor” value is reported as “not statistically significantly affected”.
